We go through one compound from US8501792B2, “Treating cancer with desthiazolyl ritonavir” (priority 2008, dated 2013).

One test concerns ER+ lines. The test is described as follows: MTT proliferation assay, ER+ lines (IC90). Format: cell-based. The following applies: difference to ritonavir, read-out: IC90 values, amount less than ritonavir. As to the method:
M1 inhibition of proliferation of MCF7, T47D and MDA-MB-231 cell lines was studied. Cells (n=2000/well) were seeded in 96 well plates with drug or vehicle (DMSO) on D1 and after 48 h the cell number was determined by MTT assay. Each assay was performed with 8 measurements for each data point (See FIG. 1, wherein graph A corresponds to MCF7, graph B corresponds to T47D, and graph C corresponds to MDA-MB-231).
(Tetrazolium dyes change colour on reduction, which living cells bring about.)

Another test concerns HER2. Description: Surface HER2 flow cytometry in SKBR3 cells. Format: cell-based. As to the method: SKBR3 cells were plated at a density of 80,000 cells/well in 6-well plates. After 18 hours, cells were exposed to ritonavir (33 μM), Desthiazolyl Ritonavir (M1) (33 μM), or DMSO. After 24 hours, cells were trypsinized, spun down, and resuspended in 50 μL of Staining Buffer (PBS 1% BSA). Cells were then incubated with anti-HER2 Ab FITC (Chemicon International; MAB4083F) for 30 minutes (on-ice and in the dark). Control cells were incubated with mouse IgG1 FITC (Biolytex). Cells were washed two times with Washing Buffer (PBS 0.1% Tween-20), resuspended in 100 μL of PBS, and acquired using FACSCalibur flow cytometer.
In general terms: A flow cytometer gives signals particle by particle.

A further test deals with Purified mammalian Hsp90. Description: Hsp90 binding on CM-5 BIAcore chip (surface plasmon resonance). The following applies: RU value versus drug concentration; FIG. 11. An excerpt:
Inhibition of Hsp90 can be evaluated by surface plasmon resonance studies of a compound of formula I, using a CM-5 Biacore chip on which Hsp90 (Stressgen, Ann Arbor) has been immobilized. This method can also be used to evaluate the chaperoning activity of a compound of formula I by evaluation of luciferase refolding. See Examples 4 and 9.
Purified mammalian Hsp90 was attached to a CM-5 BIAcore chip through an NHS ester linkage. After attachment of the Hsp90 and blocking the chip with BSA, M1 drug or a 17-AAG control was circulated through a microfluidic circuit and change in refractive index was measured by quantification of the RU value for each drug concentration. In the case of the 17-AAG control the binding was saturable and based on the kon and koff measurements, the KD was estimated to be in the 1 microM range. […] This means that there are significant differences in the binding of M-1 and may indicate alteration of the Hsp90 structure.
On the technique in general: SPR reads the build-up and loss of mass on a sensor chip optically.

In test [1] the test system is H522 adenocarcinoma non-small cell lung cancer cell. Description: MTT proliferation assay, H522. Format: cell-based. The settings on record: 10 to 80 μmol/L, 48 hours, FIG. 18. How it is done: H522 adenocarcinoma non-small cell lung cancer cell proliferation was measured in 96-well plates by a 3-(4,5-dimethylthiazol-2-yl)-2,5 diphenyltetrazolium bromide (MTT) assay that measures reduction of MTT in 96-well plates (see Ohno M, Abe T. J Immunol Methods, 1991 Dec. 15; 145(1-2):199-203). The cells were exposed to 10 to 80 μmol/L ritonavir, M1 or DMSO vehicle for 48 hours and proliferation was subsequently quantified by MTT assay. The MTT was added to the medium at the endpoint and the plate was incubated for 2 hours. The plate was then centrifuged in an Allegra plate centrifuge at 2000 rpm for 5 minutes. The medium was removed, and the pellet was dissolved in 100 μL of DMSO per well. The pellet was dissolved using a gently vibrating platform. The plates were read with a BioTek Synergy plate reader in colorimetric mode at 540 nm. Each assay was performed in octuplicate for each data point.

For a further test, the system named is HIV. The settings on record: MT-4 cell based assay; Denissen et al. 1997; cited from earlier work.

SMILES strings stand for the structures.

Take `CC(C)c1nc(CN(C)C(=O)NC(C(=O)NC(Cc2ccccc2)CC(O)C(N)Cc2ccccc2)C(C)C)cs1` (stereo not drawn) [M1, desthiazolyl ritonavir]: the IC90 in the test with ER+ lines is > 30 µM. Further, in the test on HER2 (SKBR3, 33 μM, 24 hours, FIG. 7), the “anti-HER2 functionality / expression of surface HER2” value is on record as “exhibited anti-HER2 functionality”. The “reduction of the expression of surface HER2” value with HER2 (SKBR3 line, P<0.05) is on record as “up to 80%”. Also, in the test on Purified mammalian Hsp90, the “binding to Hsp90, saturability” value is given as “the binding is not saturable”. The “measured cell proliferation compared to cells exposed to ritonavir or DMSO” value in test [1] is recorded as “lower”. The “inhibition of HIV replication” value in the test with HIV was “does not inhibit HIV replication”.

Usually IC90 stands for the concentration needed for an effect of 90%.
